Columns and labels:
[1] = target: Dual specificity testis-specific protein kinase 1 (Homo sapiens) (UniProt Q15569); conditions: Compound concentration 1000.0 nM
[2] = target: TGF-beta receptor type-2 (Homo sapiens) (UniProt P37173); conditions: Compound concentration 1000.0 nM
[3] = target: T1, Alpha-2B adrenergic receptor (Homo sapiens) (UniProt P18089); assay: Alpha2B (h) Eurofins-Cerep binding assay; parameters: ligand concentration 2.5 nM; conditions: filed as antagonist, Compound concentration 10.0 uM
T1 sequence (whole entry): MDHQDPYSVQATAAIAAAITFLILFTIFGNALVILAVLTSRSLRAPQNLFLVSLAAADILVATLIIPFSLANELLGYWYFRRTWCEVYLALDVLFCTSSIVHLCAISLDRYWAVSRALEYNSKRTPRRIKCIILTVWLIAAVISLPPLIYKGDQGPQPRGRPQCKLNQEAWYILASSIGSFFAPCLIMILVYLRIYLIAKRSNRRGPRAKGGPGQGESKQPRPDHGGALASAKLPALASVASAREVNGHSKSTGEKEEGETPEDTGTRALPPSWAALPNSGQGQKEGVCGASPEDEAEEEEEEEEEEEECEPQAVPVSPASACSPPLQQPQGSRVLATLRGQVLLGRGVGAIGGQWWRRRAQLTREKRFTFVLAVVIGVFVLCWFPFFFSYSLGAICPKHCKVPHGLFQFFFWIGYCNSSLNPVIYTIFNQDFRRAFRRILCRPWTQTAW

[4] = target: 5-hydroxytryptamine receptor 2B (Homo sapiens) (UniProt P41595); assay: 5-HT2B (h) Eurofins-Cerep binding assay; parameters: ligand concentration 0.2 nM; conditions: filed as agonist, Compound concentration 10.0 uM
[5] = target: Serine/threonine-protein kinase MARK2 (Homo sapiens) (UniProt Q7KZI7); conditions: Compound concentration 1000.0 nM
[6] = target: Dual specificity mitogen-activated protein kinase kinase 5 (Homo sapiens) (UniProt Q13163); conditions: Compound concentration 1000.0 nM
Sequence of Dual specificity mitogen-activated protein kinase kinase 5 (Homo sapiens) (Q13163 whole entry): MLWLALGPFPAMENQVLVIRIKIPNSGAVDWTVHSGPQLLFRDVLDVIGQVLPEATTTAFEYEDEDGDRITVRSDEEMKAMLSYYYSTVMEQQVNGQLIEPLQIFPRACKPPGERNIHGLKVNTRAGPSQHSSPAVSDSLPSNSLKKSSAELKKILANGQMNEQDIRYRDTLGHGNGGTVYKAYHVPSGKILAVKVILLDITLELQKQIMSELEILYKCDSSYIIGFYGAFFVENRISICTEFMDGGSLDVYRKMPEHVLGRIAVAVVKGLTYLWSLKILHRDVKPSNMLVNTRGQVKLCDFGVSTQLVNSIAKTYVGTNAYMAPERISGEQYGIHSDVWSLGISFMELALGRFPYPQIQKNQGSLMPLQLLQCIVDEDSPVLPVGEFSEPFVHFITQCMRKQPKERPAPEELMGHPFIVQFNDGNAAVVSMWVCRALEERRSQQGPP

[7] = target: Dual specificity protein kinase CLK1 (Homo sapiens) (UniProt P49759); conditions: Compound concentration 1000.0 nM
[8] = target: Hormonally up-regulated neu tumor-associated kinase (Homo sapiens) (UniProt P57058); conditions: Compound concentration 1000.0 nM
Sequence of Hormonally up-regulated neu tumor-associated kinase (Homo sapiens) (P57058 whole entry): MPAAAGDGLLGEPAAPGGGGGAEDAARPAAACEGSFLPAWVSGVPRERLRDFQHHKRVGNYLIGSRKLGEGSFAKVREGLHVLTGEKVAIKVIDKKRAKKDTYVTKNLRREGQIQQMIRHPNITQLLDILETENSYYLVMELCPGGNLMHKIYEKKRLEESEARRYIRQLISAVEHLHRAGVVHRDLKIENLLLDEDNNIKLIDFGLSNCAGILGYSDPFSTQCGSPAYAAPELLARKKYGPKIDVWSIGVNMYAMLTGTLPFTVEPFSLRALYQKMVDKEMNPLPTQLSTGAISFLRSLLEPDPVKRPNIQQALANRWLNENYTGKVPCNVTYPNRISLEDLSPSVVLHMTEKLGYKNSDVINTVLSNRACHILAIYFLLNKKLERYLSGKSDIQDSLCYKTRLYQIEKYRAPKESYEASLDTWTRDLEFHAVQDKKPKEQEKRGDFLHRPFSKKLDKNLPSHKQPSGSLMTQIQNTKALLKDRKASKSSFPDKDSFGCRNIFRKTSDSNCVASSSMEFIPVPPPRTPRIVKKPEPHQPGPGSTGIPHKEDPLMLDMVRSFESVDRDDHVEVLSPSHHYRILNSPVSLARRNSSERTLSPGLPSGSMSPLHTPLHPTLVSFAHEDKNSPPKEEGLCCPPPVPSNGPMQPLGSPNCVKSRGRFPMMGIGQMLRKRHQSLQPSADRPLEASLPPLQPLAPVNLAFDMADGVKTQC

[9] = test system: Proto-oncogene tyrosine-protein kinase receptor Ret (Homo sapiens), P07949 [M918T]; conditions: Compound concentration 1000.0 nM
[10] = target: Serine/threonine-protein kinase Sgk3 (Homo sapiens) (UniProt Q96BR1); conditions: Compound concentration 1000.0 nM
Sequence of Serine/threonine-protein kinase Sgk3 (Homo sapiens) (Q96BR1 whole entry): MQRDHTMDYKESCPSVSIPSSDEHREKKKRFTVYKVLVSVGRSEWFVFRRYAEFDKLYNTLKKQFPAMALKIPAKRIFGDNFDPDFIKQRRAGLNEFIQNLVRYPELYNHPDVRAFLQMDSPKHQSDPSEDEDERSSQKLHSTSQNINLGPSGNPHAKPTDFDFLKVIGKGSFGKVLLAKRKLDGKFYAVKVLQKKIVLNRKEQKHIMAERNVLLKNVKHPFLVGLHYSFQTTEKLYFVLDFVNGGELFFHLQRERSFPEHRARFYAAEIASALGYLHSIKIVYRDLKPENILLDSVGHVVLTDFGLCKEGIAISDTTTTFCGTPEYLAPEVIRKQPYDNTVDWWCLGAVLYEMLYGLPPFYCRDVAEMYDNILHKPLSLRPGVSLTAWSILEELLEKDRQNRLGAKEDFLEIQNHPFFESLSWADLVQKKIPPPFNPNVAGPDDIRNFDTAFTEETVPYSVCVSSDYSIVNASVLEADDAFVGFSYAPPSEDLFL

[11] = target: Adenosine receptor A3 (Homo sapiens) (UniProt P0DMS8); assay: A3 (h) Eurofins-Cerep binding assay; parameters: ligand concentration 0.15 nM; conditions: filed as agonist, Compound concentration 10.0 uM
Sequence of Adenosine receptor A3 (Homo sapiens) (P0DMS8 whole entry): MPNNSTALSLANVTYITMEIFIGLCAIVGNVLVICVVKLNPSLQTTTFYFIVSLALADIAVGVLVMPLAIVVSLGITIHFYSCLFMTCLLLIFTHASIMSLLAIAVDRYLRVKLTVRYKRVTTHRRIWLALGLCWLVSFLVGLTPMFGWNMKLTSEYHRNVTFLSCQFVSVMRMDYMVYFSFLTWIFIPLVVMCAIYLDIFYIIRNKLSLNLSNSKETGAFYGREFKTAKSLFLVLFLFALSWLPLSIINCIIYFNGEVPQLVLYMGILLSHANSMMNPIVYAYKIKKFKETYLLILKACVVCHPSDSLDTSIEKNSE

[12] = target: Activin receptor type-1-like (Homo sapiens) (UniProt P37023); conditions: Compound concentration 1000.0 nM
Sequence of Activin receptor type-1-like (Homo sapiens) (P37023 whole entry): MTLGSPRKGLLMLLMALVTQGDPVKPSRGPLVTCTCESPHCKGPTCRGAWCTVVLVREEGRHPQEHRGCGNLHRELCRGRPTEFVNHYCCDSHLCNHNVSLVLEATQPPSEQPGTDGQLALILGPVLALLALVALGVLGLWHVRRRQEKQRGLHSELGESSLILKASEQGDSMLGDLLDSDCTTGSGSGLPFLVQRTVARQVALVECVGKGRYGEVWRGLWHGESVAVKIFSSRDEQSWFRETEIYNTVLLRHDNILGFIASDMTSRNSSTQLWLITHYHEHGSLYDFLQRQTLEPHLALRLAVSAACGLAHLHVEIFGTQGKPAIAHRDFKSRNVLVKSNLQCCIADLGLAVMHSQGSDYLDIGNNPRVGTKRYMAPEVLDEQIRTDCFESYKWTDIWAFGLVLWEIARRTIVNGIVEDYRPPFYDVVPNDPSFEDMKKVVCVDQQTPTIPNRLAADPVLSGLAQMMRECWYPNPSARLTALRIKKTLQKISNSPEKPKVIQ

[13] = target: Tyrosine-protein kinase BTK (Homo sapiens) (UniProt Q06187); conditions: Compound concentration 1000.0 nM
[14] = target: Membrane-associated tyrosine- and threonine-specific cdc2-inhibitory kinase (Homo sapiens) (UniProt Q99640); conditions: Compound concentration 1000.0 nM
[15] = target: Mitogen-activated protein kinase kinase kinase 1 (Homo sapiens) (UniProt Q13233); conditions: Compound concentration 1000.0 nM
[16] = target: Serine/threonine-protein kinase 32C (Homo sapiens) (UniProt Q86UX6); conditions: Compound concentration 1000.0 nM
[17] = target: Casein kinase I isoform gamma-3 (Homo sapiens) (UniProt Q9Y6M4); conditions: Compound concentration 1000.0 nM
[18] = target: Proto-oncogene tyrosine-protein kinase receptor Ret (Homo sapiens) (UniProt P07949); conditions: Compound concentration 1000.0 nM
[19] = target: Serine/threonine-protein kinase SIK2 (Homo sapiens) (UniProt Q9H0K1); conditions: Compound concentration 1000.0 nM
[20] = target: SRSF protein kinase 1 (Homo sapiens) (UniProt Q96SB4); conditions: Compound concentration 1000.0 nM
[21] = test system: ALK tyrosine kinase receptor (Homo sapiens), Q9UM73 [C1156Y]; conditions: Compound concentration 1000.0 nM
[22] = target: Serine/threonine-protein kinase 17B (Homo sapiens) (UniProt O94768); conditions: Compound concentration 1000.0 nM
[23] = target: Myosin light chain kinase 2, skeletal/cardiac muscle (Homo sapiens) (UniProt Q9H1R3); conditions: Compound concentration 1000.0 nM
[24] = test system: Receptor-type tyrosine-protein kinase FLT3 (Homo sapiens), P36888 [UNDEFINED MUTATION]; conditions: Compound concentration 1000.0 nM
[25] = target: Endothelin receptor type B (Homo sapiens) (UniProt P24530); assay: ETB (h) Eurofins-Cerep binding assay; parameters: ligand concentration 0.03 nM; conditions: filed as agonist, Compound concentration 10.0 uM
[26] = target: GABA-A receptor; anion channel (Rattus norvegicus) (UniProt O09028+P15431+P18506+P18508+P19969+P20236+P23574+P23576+P28471+P28473+P30191+P62813+P63079+P63138+Q91ZM7+Q9ES14); assay: BZD (central) Eurofins-Cerep binding assay; format: protein-complex assay; parameters: ligand concentration 0.4 nM; conditions: filed as agonist, Compound concentration 10.0 uM
[27] = test system: Epidermal growth factor receptor (Homo sapiens), P00533 [L858R,T790M]; conditions: Compound concentration 1000.0 nM
[28] = target: Phosphatidylinositol 4-phosphate 5-kinase type-1 alpha (Homo sapiens) (UniProt Q99755); conditions: Compound concentration 1000.0 nM
[29] = target: Epidermal growth factor receptor (Homo sapiens) (UniProt P00533); conditions: Compound concentration 1000.0 nM
[30] = target: Serine/threonine-protein kinase TNNI3K (Homo sapiens) (UniProt Q59H18); conditions: Compound concentration 1000.0 nM
[31] = target: Ephrin type-B receptor 1 (Homo sapiens) (UniProt P54762); conditions: Compound concentration 1000.0 nM
[32] = target: Serine/threonine-protein kinase MRCK gamma (Homo sapiens) (UniProt Q6DT37); conditions: Compound concentration 1000.0 nM
Sequence of Serine/threonine-protein kinase MRCK gamma (Homo sapiens) (Q6DT37 whole entry): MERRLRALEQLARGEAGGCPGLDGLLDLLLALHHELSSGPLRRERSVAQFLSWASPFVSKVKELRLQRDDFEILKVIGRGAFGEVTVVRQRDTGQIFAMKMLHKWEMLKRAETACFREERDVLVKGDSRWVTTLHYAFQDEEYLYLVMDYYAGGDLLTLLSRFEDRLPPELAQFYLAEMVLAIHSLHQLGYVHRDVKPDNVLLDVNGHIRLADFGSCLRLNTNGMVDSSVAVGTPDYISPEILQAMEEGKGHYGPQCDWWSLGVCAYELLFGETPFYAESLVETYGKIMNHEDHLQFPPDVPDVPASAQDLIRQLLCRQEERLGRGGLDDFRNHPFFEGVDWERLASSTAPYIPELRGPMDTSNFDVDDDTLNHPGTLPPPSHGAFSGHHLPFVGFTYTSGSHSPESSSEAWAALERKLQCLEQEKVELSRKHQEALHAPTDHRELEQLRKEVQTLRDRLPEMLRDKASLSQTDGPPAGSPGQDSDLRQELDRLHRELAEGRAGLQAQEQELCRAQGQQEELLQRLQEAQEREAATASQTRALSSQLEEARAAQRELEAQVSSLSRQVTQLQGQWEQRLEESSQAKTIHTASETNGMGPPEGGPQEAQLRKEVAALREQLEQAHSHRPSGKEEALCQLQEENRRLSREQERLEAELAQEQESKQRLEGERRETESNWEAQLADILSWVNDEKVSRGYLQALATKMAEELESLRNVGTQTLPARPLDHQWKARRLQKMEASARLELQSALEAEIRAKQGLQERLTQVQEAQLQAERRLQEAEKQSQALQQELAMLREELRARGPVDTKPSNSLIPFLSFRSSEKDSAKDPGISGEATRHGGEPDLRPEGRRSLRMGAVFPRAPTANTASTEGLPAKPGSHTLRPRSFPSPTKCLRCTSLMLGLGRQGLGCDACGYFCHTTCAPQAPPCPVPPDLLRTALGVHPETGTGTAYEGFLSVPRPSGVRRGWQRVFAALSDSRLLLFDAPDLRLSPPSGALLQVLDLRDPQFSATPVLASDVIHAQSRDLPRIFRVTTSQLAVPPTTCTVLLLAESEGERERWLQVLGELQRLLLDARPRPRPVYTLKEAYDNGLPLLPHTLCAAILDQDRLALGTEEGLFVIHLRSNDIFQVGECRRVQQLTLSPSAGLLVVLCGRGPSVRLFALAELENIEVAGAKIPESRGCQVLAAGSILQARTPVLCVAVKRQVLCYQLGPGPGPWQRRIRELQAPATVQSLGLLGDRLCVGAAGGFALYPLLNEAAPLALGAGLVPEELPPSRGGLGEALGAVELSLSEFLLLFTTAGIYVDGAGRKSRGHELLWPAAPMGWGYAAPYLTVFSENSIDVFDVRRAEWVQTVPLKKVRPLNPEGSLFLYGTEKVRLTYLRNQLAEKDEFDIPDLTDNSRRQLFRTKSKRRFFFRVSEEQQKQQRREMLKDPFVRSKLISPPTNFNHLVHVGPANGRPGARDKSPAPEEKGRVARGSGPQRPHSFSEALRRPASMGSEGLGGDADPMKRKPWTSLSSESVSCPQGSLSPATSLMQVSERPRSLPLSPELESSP

[33] = target: Serine/threonine-protein kinase ULK2 (Homo sapiens) (UniProt Q8IYT8); conditions: Compound concentration 1000.0 nM
Sequence of Serine/threonine-protein kinase ULK2 (Homo sapiens) (Q8IYT8 whole entry): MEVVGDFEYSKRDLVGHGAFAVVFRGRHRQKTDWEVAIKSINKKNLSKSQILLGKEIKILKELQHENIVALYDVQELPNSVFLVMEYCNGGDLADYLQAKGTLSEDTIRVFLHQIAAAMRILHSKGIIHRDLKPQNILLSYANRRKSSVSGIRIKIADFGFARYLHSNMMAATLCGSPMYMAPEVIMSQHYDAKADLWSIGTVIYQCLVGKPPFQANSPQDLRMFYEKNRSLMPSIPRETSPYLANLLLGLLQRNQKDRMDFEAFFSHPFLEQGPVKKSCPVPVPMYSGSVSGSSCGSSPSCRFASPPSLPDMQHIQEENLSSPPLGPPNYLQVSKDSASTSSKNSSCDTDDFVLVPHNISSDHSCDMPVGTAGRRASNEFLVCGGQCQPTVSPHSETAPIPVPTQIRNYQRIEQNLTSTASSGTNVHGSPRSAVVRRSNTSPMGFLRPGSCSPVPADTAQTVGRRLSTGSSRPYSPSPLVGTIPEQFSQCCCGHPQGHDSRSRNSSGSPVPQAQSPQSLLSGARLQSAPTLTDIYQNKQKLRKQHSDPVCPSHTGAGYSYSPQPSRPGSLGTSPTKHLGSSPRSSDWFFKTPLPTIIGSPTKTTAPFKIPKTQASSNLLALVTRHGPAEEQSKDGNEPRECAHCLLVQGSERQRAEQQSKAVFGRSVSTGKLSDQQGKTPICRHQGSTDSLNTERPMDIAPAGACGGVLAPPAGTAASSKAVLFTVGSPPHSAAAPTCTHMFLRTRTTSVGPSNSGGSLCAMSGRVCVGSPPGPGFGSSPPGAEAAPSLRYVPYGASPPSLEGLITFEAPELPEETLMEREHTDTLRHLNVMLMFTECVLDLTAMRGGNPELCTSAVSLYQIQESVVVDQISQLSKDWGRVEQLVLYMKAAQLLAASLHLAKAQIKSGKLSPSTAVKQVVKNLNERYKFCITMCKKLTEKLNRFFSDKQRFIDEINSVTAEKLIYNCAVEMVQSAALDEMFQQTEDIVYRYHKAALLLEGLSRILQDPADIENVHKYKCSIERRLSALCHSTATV

[34] = target: High affinity nerve growth factor receptor (Homo sapiens) (UniProt P04629); conditions: Compound concentration 1000.0 nM
[35] = target: BDNF/NT-3 growth factors receptor (Homo sapiens) (UniProt Q16620); conditions: Compound concentration 1000.0 nM
[36] = target: MAP kinase-activated protein kinase 5 (Homo sapiens) (UniProt Q8IW41); conditions: Compound concentration 1000.0 nM
[37] = target: Beta-2 adrenergic receptor (Homo sapiens) (UniProt P07550); assay: Beta2 (h) Eurofins-Cerep binding assay; parameters: ligand concentration 0.3 nM; conditions: filed as antagonist, Compound concentration 10.0 uM

Row | Compound | residual activity [1] [%] | residual activity [2] [%] | % Inhibition of Control Specific Binding (Mean n=2) [3] [%] | % Inhibition of Control Specific Binding (Mean n=2) [4] [%] | residual activity [5] [%] | residual activity [6] [%] | residual activity [7] [%] | residual activity [8] [%] | residual activity [9] [%] | residual activity [10] [%] | % Inhibition of Control Specific Binding (Mean n=2) [11] [%] | residual activity [12] [%] | residual activity [13] [%] | residual activity [14] [%] | residual activity [15] [%] | residual activity [16] [%] | residual activity [17] [%] | residual activity [18] [%] | residual activity [19] [%] | residual activity [20] [%] | further results
1 | O=C(NS(=O)(=O)c1ccc(NCC2CCOCC2)c([N+](=O)[O-])c1)c1ccc(N2CCN(Cc3ccc(C(F)(F)F)cc3-c3ccc(Cl)cc3)CC2)cc1Oc1cnc2[nH]ccc2c1 [A-1210227] | 100 | 76 | -11.6 | -51.4 | 100 | 75 | 69 | 100 | 100 | 92 | 6.5 | 77 | 100 | 90 | 100 | 55 | 75 | 96 | 100 | 100 | residual activity [21]: 100%; residual activity [22]: 100%; residual activity [23]: 77%; residual activity [24]: 100%; % Inhibition of Control Specific Binding (Mean n=2) [25]: -11.8%; % Inhibition of Control Specific Binding (Mean n=2) [26]: 4.2%; residual activity [27]: 75%; residual activity [28]: 93%; residual activity [29]: 84%; residual activity [30]: 95%; residual activity [31]: 100%; residual activity [32]: 100%; residual activity [33]: 100%; residual activity [34]: 100%; residual activity [35]: 88%; residual activity [36]: 81%; % Inhibition of Control Specific Binding (Mean n=2) [37]: 10.5%
2 | CO[C@H]1CC[C@H](CNc2ccc(S(=O)(=O)NC(=O)c3ccc(N4CCN(CC5=C(c6ccc(Cl)cc6)CC(C)(C)CC5)CC4)cc3Oc3cnc4[nH]ccc4c3)cc2[N+](=O)[O-])CC1 [A-1211212] | 100 | 74 | -20.1 | -142 | 100 | 66 | 92 | 100 | 85 | 99 | 13.3 | 72 | 100 | 100 | 100 | 54 | 91 | 100 | 100 | 96 | residual activity [21]: 100%; residual activity [22]: 91%; residual activity [23]: 66%; residual activity [24]: 86%; % Inhibition of Control Specific Binding (Mean n=2) [25]: -6.7%; % Inhibition of Control Specific Binding (Mean n=2) [26]: -1%; residual activity [27]: 98%; residual activity [28]: 86%; residual activity [29]: 62%; residual activity [30]: 85%; residual activity [31]: 84%; residual activity [32]: 75%; residual activity [33]: 100%; residual activity [34]: 100%; residual activity [35]: 100%; residual activity [36]: 82%; % Inhibition of Control Specific Binding (Mean n=2) [37]: -1%

Reference: ChEMBL document CHEMBL4507310, “Data for DCP probe A-1211212” (2021)
